Reference: patent publication US10131652B2, “Pyrimidinyloxy benzene derivatives as herbicides” (E. I. DU PONT DE NEMOURS AND COMPANY, priority 2014, dated 2018)
Read-outs that look alike come from different tables or passages of the source.

Legend:
Assay in all cases: Test D pre-/postemergence plant response
Assay type in all cases: in vivo
[1] = system: galium (catchweed bedstraw, Galium aparine); conditions: Galium; for pest or weed control at 62 g/ha: 62 g ai/ha; for pest or weed control at 125 g/ha: 125 g ai/ha
Text: (§1) Seeds of plant species selected from blackgrass (Alopecurus myosuroides), Italian ryegrass (Lolium multiflorum), winter wheat (Triticum aestivum), galium (catchweed bedstraw, Galium aparine), corn (Zea mays), large (Lg) crabgrass (Digitaria sanguinalis), giant foxtail (Setaria faberii), johnsongrass (Sorghum halepense), lambsquarters (Chenopodium album), morningglory (Ipomoea coccinea), yellow nutsedge (Cyperus esculentus), pigweed (Amaranthus retroflexus), ragweed (common ragweed, Ambrosia elatior), soybean (Glycine max), bamyardgrass (Echinochloa crus-galli), oilseed rape (Brassica napus), waterhemp (common waterhemp, Amaranthus rudis), and velvetleaf (Abutilon theophrasti) were planted into a blend of loam soil and sand and treated preemergence with test chemicals formulated in a non-phytotoxic solvent mixture which included a surfactant. At the same time, plants selected from these crop and weed species and also kochia (Kochia scoparia), wild oat (Avena fatua), and chickweed (common chickweed, Stellaria media) were planted in pots containing Redi-Earth® planting medium (Scotts Company, 14111 Scottslawn Road, Marysville, Ohio 43041) comprising spaghnum peat moss, vermiculite, wetting agent and starter nutrients and treated with postemergence applications of test chemicals formulated in the same manner. Plants ranged in height from 2 to 18 cm (1- to 4-leaf stage) for postemergence treatments. Treated plants and controls were maintained in a greenhouse for 13 to 15 days, after which time all species were compared to controls and visually evaluated. Plant response ratings, summarized in Table D, are based on a scale of 0 to 100 where 0 is no effect and 100 is complete control. A dash (-) response means no test result.

[2] = system: giant foxtail (Setaria faberii); conditions: Setaria faberi; for pest or weed control at 16 g/ha: 16 g ai/ha; for pest or weed control at 31 g/ha: 31 g ai/ha; for pest or weed control at 62 g/ha: 62 g ai/ha; for pest or weed control at 125 g/ha: 125 g ai/ha
Text: as §1

[3] = system: lambsquarters (Chenopodium album); conditions: Chenopodium album; for pest or weed control at 16 g/ha: 16 g ai/ha; for pest or weed control at 31 g/ha: 31 g ai/ha; for pest or weed control at 62 g/ha: 62 g ai/ha; for pest or weed control at 125 g/ha: 125 g ai/ha
Text: as §1

[4] = system: morningglory (Ipomoea coccinea); conditions: Ipomoea; for pest or weed control at 16 g/ha: 16 g ai/ha; for pest or weed control at 31 g/ha: 31 g ai/ha; for pest or weed control at 62 g/ha: 62 g ai/ha; for pest or weed control at 125 g/ha: 125 g ai/ha
Text: as §1

[5] = system: pigweed (Amaranthus retroflexus); conditions: Amaranthus retroflexus; for pest or weed control at 16 g/ha: 16 g ai/ha; for pest or weed control at 31 g/ha: 31 g ai/ha; for pest or weed control at 62 g/ha: 62 g ai/ha; for pest or weed control at 125 g/ha: 125 g ai/ha
Text: as §1

[6] = system: ragweed (common ragweed, Ambrosia elatior); conditions: Ambrosia artemisiifolia; for pest or weed control at 16 g/ha: 16 g ai/ha; for pest or weed control at 31 g/ha: 31 g ai/ha; for pest or weed control at 62 g/ha: 62 g ai/ha; for pest or weed control at 125 g/ha: 125 g ai/ha
Text: as §1

[7] = system: waterhemp (common waterhemp, Amaranthus rudis); conditions: Amaranthus tuberculatus; for pest or weed control at 16 g/ha: 16 g ai/ha; for pest or weed control at 31 g/ha: 31 g ai/ha; for pest or weed control at 62 g/ha: 62 g ai/ha; for pest or weed control at 125 g/ha: 125 g ai/ha
Text: as §1

[8] = post-emergence, Postemergence, scale 0 to 100, 0 no effect, 100 complete control, read-out: Plant response rating, Galium
[9] = post-emergence, Postemergence, scale 0 to 100, 0 no effect, 100 complete control, read-out: Plant response rating, Foxtail, Giant
[10] = pre-emergence, Preemergence, scale 0 to 100 (0 no effect, 100 complete control), read-out: Plant response rating, Foxtail, Giant
[11] = pre-emergence, Preemergence, scale 0 to 100 (0 no effect, 100 complete control), read-out: Plant response rating, Lambsquarters
[12] = pre-emergence, Preemergence, scale 0 to 100 (0 no effect, 100 complete control), read-out: Plant response rating, Morningglory
[13] = pre-emergence, Preemergence, scale 0 to 100 (0 no effect, 100 complete control), read-out: Plant response rating, Pigweed
[14] = pre-emergence, Preemergence, scale 0 to 100 (0 no effect, 100 complete control), read-out: Plant response rating, Ragweed
[15] = pre-emergence, Preemergence, scale 0 to 100 (0 no effect, 100 complete control), read-out: Plant response rating, Waterhemp

SMILES: FC(F)(F)c1cc(-c2ccccc2Oc2ncc(Cl)cn2)no1 [Compound 200, 5-chloro-2-[2-[5-(trifluoromethyl)-3-isoxazolyl]phenoxy]pyrimidine]
- pest or weed control at 62 g/ha [1, 8]: 100%
- pest or weed control at 125 g/ha [1, 8]: 100%
- pest or weed control at 125 g/ha ([1]; pre-emergence, Preemergence, read-out: Plant response rating (scale 0 to 100), Galium): 95%
- pest or weed control at 16 g/ha ([1]; pre-emergence, Preemergence, 16 g ai/ha, scale 0 to 100 (0 no effect, 100 complete control), read-out: Plant response rating, Galium): 85%
- pest or weed control at 31 g/ha ([1]; pre-emergence, Preemergence, 31 g ai/ha, scale 0 to 100 (0 no effect, 100 complete control), read-out: Plant response rating, Galium): 98%
- pest or weed control at 62 g/ha ([1]; pre-emergence, Preemergence, scale 0 to 100 (0 no effect, 100 complete control), read-out: Plant response rating, Galium): 100%
- pest or weed control at 16 g/ha ([2]; post-emergence, Postemergence, read-out: Plant response rating (scale 0 to 100), Foxtail, Giant): 5%
- pest or weed control at 31 g/ha ([2]; post-emergence, Postemergence, scale 0 to 100 (0 no effect, 100 complete control), read-out: Foxtail, Giant plant response rating): 20%
- pest or weed control at 62 g/ha [2, 9]: 10%
- pest or weed control at 125 g/ha [2, 9]: 15%
- pest or weed control at 125 g/ha ([2]; pre-emergence, Preemergence, read-out: Plant response rating (scale 0 to 100), Foxtail, Giant): 100%
- pest or weed control at 16 g/ha [2, 10]: 95%
- pest or weed control at 31 g/ha [2, 10]: 100%
- pest or weed control at 62 g/ha [2, 10]: 100%
- pest or weed control at 16 g/ha ([3]; post-emergence, Postemergence, read-out: Plant response rating (scale 0 to 100), Lambsquarters): 70%
- pest or weed control at 31 g/ha ([3]; post-emergence, Postemergence, scale 0 to 100 (0 no effect, 100 complete control), read-out: Lambsquarters plant response rating): 80%
- pest or weed control at 62 g/ha ([3]; post-emergence, Postemergence, scale 0 to 100, 0 no effect, 100 complete control, read-out: Lambsquarters plant response rating): 85%
- pest or weed control at 125 g/ha ([3]; post-emergence, Postemergence, scale 0 to 100, 0 no effect, 100 complete control, read-out: Plant response rating, Lambsquarters): 98%
- pest or weed control at 125 g/ha ([3]; pre-emergence, Preemergence, read-out: Plant response rating (scale 0 to 100), Lambsquarters): 100%
- pest or weed control at 16 g/ha [3, 11]: 75%
- pest or weed control at 31 g/ha [3, 11]: 98%
- pest or weed control at 62 g/ha [3, 11]: 95%
- pest or weed control at 16 g/ha ([4]; post-emergence, Postemergence, read-out: Plant response rating (scale 0 to 100), Morningglory): 55%
- pest or weed control at 31 g/ha ([4]; post-emergence, Postemergence, scale 0 to 100 (0 no effect, 100 complete control), read-out: Morningglory plant response rating): 50%
- pest or weed control at 62 g/ha ([4]; post-emergence, Postemergence, scale 0 to 100, 0 no effect, 100 complete control, read-out: Morningglory plant response rating): 85%
- pest or weed control at 125 g/ha ([4]; post-emergence, Postemergence, scale 0 to 100, 0 no effect, 100 complete control, read-out: Plant response rating, Morningglory): 98%
- pest or weed control at 125 g/ha ([4]; pre-emergence, Preemergence, read-out: Plant response rating (scale 0 to 100), Morningglory): 90%
- pest or weed control at 16 g/ha [4, 12]: 5%
- pest or weed control at 31 g/ha [4, 12]: 45%
- pest or weed control at 62 g/ha [4, 12]: 70%
- pest or weed control at 16 g/ha ([5]; post-emergence, Postemergence, read-out: Plant response rating (scale 0 to 100), Pigweed): 90%
- pest or weed control at 31 g/ha ([5]; post-emergence, Postemergence, scale 0 to 100 (0 no effect, 100 complete control), read-out: Pigweed plant response rating): 85%
- pest or weed control at 62 g/ha ([5]; post-emergence, Postemergence, scale 0 to 100, 0 no effect, 100 complete control, read-out: Pigweed plant response rating): 85%
- pest or weed control at 125 g/ha ([5]; post-emergence, Postemergence, scale 0 to 100, 0 no effect, 100 complete control, read-out: Plant response rating, Pigweed): 98%
- pest or weed control at 125 g/ha ([5]; pre-emergence, Preemergence, read-out: Plant response rating (scale 0 to 100), Pigweed): 100%
- pest or weed control at 16 g/ha [5, 13]: 100%
- pest or weed control at 31 g/ha [5, 13]: 100%
- pest or weed control at 62 g/ha [5, 13]: 100%
- pest or weed control at 16 g/ha ([6]; post-emergence, Postemergence, read-out: Plant response rating (scale 0 to 100), Ragweed): 30%
- pest or weed control at 31 g/ha ([6]; post-emergence, Postemergence, scale 0 to 100 (0 no effect, 100 complete control), read-out: Ragweed plant response rating): 55%
- pest or weed control at 62 g/ha ([6]; post-emergence, Postemergence, scale 0 to 100, 0 no effect, 100 complete control, read-out: Ragweed plant response rating): 60%
- pest or weed control at 125 g/ha ([6]; post-emergence, Postemergence, scale 0 to 100, 0 no effect, 100 complete control, read-out: Plant response rating, Ragweed): 40%
- pest or weed control at 125 g/ha ([6]; pre-emergence, Preemergence, read-out: Plant response rating (scale 0 to 100), Ragweed): 80%
- pest or weed control at 16 g/ha [6, 14]: 0%
- pest or weed control at 31 g/ha [6, 14]: 5%
- pest or weed control at 62 g/ha [6, 14]: 70%
- pest or weed control at 16 g/ha ([7]; post-emergence, Postemergence, read-out: Plant response rating (scale 0 to 100), Waterhemp): 80%
- pest or weed control at 31 g/ha ([7]; post-emergence, Postemergence, scale 0 to 100 (0 no effect, 100 complete control), read-out: Waterhemp plant response rating): 90%
- pest or weed control at 62 g/ha ([7]; post-emergence, Postemergence, scale 0 to 100, 0 no effect, 100 complete control, read-out: Waterhemp plant response rating): 98%
- pest or weed control at 125 g/ha ([7]; post-emergence, Postemergence, scale 0 to 100, 0 no effect, 100 complete control, read-out: Plant response rating, Waterhemp): 100%
- pest or weed control at 125 g/ha ([7]; pre-emergence, Preemergence, read-out: Plant response rating (scale 0 to 100), Waterhemp): 100%
- pest or weed control at 16 g/ha [7, 15]: 98%
- pest or weed control at 31 g/ha [7, 15]: 100%
- pest or weed control at 62 g/ha [7, 15]: 100%
